Data as given in patent publication US20230159527A1, “COMPOUNDS AS BCL-2 INHIBITORS” (Fochon Pharmaceuticals, Ltd., priority 2020, published 2023).

These molecules were tested on Toledo cells (assay: Cell proliferation assay, Toledo cells (MTS, 72 h)). Details: Homo sapiens, Toledo cells, MTS, read-out: Toledo IC50.
Format: cell-based
Method: MTS testing kit was purchased from Promega (Madison, Wis., USA). The RPMI-1640, Fetal bovine serum and Penicillin-Streptomycin were purchased from BI (Biological Industries, Beit Haemek, Israel). Dimethyl sulfoxide (DMSO) was purchased from Sigma (St. Louis, Mo., USA). Toledo (ATCC catalog #: CRL-2631) cells were cultured in RPMI-1640 supplemented with Penicillin-Streptomycin and 10% FBS.
To investigate whether a compound is able to inhibit the activity of BCL-2 in cells, a mechanism-based assay using Toledo lines was developed. In this assay, the inhibition of BCL-2 was reflected by the inhibition of cell proliferation of Toledo cells. Cells were plated into 96-well plates at the optimized cell density of 30000 cells/well. Plates were incubated at 37° C., with 5% CO2 for 4h. Compounds were serially diluted and added to the plates with the final concentrations of 10000, 3333.3, 1111.1, 370.4, 123.5, 41.2, 13.7, 4.6 and 1.5 nM. Plates were incubated at 37° C., with 5% CO2 for 72 h. 20 μl MTS was added into each well and the plates were incubated at 37° C., with 5% CO2 for exactly 2 h. The absorbance was measured by a microplate reader at 490 nm. IC50 was calculated using GraphPad Prism 5.0 software.
Work on `CC(C)c1ccccc1[C@H]1CCCN1C1CC2(CCN(c3ccc(C(=O)NS(=O)(=O)c4cc5c(c([N+](=O)[O-])c4)NC([C@H]4COCCO4)CO5)c(Oc4cnc5[nH]cc(F)c5c4)c3)CC2)C1` (single isomer, unassigned) [Example D-50a, N-(((R or S)-3-((S)-1,4-dioxan-2-yl)-5-nitro-3,4-dihydro-2H-benzo[b][1,4]oxazin-7-yl)sulfonyl)-2-((3-fluoro-1H-pyrrolo[2,3-b]pyridin-5-yl)oxy)-4-(2-((R or S)-2-(2-isopropylphenyl)pyrrolidin-1-yl)-7-azaspiro[3.5]nonan-7-yl)benzamide] yielded an IC50 of 1 nM.
`CSc1nc2[nH]ccc2cc1Oc1cc(N2CCC3(CC2)CC(N2CCC[C@H]2c2ccccc2C(C)C)C3)ccc1C(=O)NS(=O)(=O)c1cc2c(c([N+](=O)[O-])c1)N[C@@H]([C@H]1CC[C@](C)(O)CC1)CO2` (single isomer, unassigned) [Example D-191, N-(((S)-3-((1r,4S)-4-hydroxy-4-methylcyclohexyl)-5-nitro-3,4-dihydro-2H-benzo[b][1,4]oxazin-7-yl)sulfonyl)-4-(2-((R or S)-2-(2-isopropylphenyl)pyrrolidin-1-yl)-7-azaspiro[3.5]nonan-7-yl)-2-((6-(methylthio)-1H-pyrrolo [2,3-b]pyridin-5-yl)oxy)benzamide] was tested, and the IC50 was 1 nM.
`CC(C)c1ccccc1[C@@H]1CCC[C@@H]1N1CC2(CCN(c3ccc(C(=O)NS(=O)(=O)c4cnc(NC[C@H]5CC[C@](C)(O)CC5)c([N+](=O)[O-])c4)c(Oc4cc5cc[nH]c5nc4OC4COC4)c3)CC2)C1` (single isomer, unassigned) [Example A-162, N-((6-((((1r,4r)-4-hydroxy-4-methyl-cyclohexyl)methyl)amino)-5-nitro-pyridin-3-yl)sulfonyl)-4-(2-((1S,2S or 1R,2R)-2-(2-isopropylphenyl)cyclo-pentyl)-2,7-diazaspiro[3.5]nonan-7-yl)-2-((6-(oxetan-3-yloxy)-1H-pyrrolo [2,3-b]pyridin-5-yl)oxy)benzamide] gave an IC50 of 1 nM.
`CC(C)c1ccccc1[C@@H]1CCCN1C1CC2(CCN(c3ccc(C(=O)NS(=O)(=O)c4cc5c(c([N+](=O)[O-])c4)N[C@@H]([C@H]4CC[C@](C)(O)CC4)CO5)c(Oc4cc5c(F)c[nH]c5nc4O[C@@H]4CCOC4)c3)CC2)C1` (single isomer, unassigned) [Example D-220, 2-((3-fluoro-6-(((R)-tetrahydrofuran-3-yl)oxy)-1H-pyrrolo[2,3-b]pyridin-5-yl)oxy)-N-((S)-3-((1r,4S)-4-hydroxy-4-methylcyclohexyl)-5-nitro-3,4-dihydro-2H-benzo [b][1,4]oxazin-7-yl)sulfonyl)-4-(2-((R or S)-2-(2-isopropylphenyl)pyrrolidin-1-yl)-7-azaspiro[3.5]nonan-7-yl)benzamide] showed an IC50 of 1 nM.
`CC(C)Oc1nc2[nH]ccc2cc1Oc1cc(N2CCC3(CC2)CC(N2CCC[C@H]2c2ccccc2C(C)C)C3)ccc1C(=O)NS(=O)(=O)c1cc2c(c([N+](=O)[O-])c1)N[C@@H]([C@H]1CC[C@](C)(O)CC1)CO2` (single isomer, unassigned) [Example D-66, N-(((S)-3-((1r,4S)-4-hydroxy-4-methylcyclohexyl)-5-nitro-3,4-dihydro-2H-benzo[b][1,4]oxazin-7-yl)sulfonyl)-2-((6-isopropoxy-1H-pyrrolo[2,3-b]pyridin-5-yl)oxy)-4-(2-((R or S)-2-(2-isopropylphenyl)pyrrolidin-1-yl)-7-azaspiro[3.5]nonan-7-yl)benzamide] showed an IC50 of 1 nM.
For `CC(C)c1ccccc1[C@@H]1CCCN1C1CC2(CCN(c3ccc(C(=O)NS(=O)(=O)c4cc5c(c([N+](=O)[O-])c4)N[C@@H]([C@H]4CC[C@H](O)CC4)CO5)c(Oc4cnc5[nH]cc(F)c5c4)c3)CC2)C1` (single isomer, unassigned) [Example D-41, 2-((3-fluoro-1H-pyrrolo[2,3-b]pyridin-5-yl)oxy)-N-(((S)-3-((1r,4S)-4-hydroxycyclohexyl)-5-nitro-3,4-dihydro-2H-benzo[b][1,4]oxazin-7-yl)sulfonyl)-4-(2-((R or S)-2-(2-isopropylphenyl)pyrrolidin-1-yl)-7-azaspiro[3.5]nonan-7-yl)benzamide], the IC50 was 1 nM.
`CC(C)c1ccccc1[C@@H]1COCCN1C1CC2(CCN(c3ccc(C(=O)NS(=O)(=O)c4cc5c(c([N+](=O)[O-])c4)N[C@@H]([C@H]4CC[C@](C)(O)CC4)CO5)c(Oc4cnc5[nH]cc(F)c5c4)c3)CC2)C1` (single isomer, unassigned) [Example D-1, 2-((3-fluoro-1H-pyrrolo[2,3-b]pyridin-5-yl)oxy)-N-(((S)-3-((1r,4S)-4-hydroxy-4-methylcyclohexyl)-5-nitro-3,4-dihydro-2H-benzo[b] [1,4]oxazin-7-yl)sulfonyl)-4-(2-((R or S)-3-(2-isopropylphenyl)morpholino)-7-azaspiro[3.5]nonan-7-yl) benzamide] showed an IC50 of 1 nM.
With `CC(C)c1ccccc1[C@@H]1COCCN1C1CC2(CCN(c3ccc(C(=O)NS(=O)(=O)c4cnc(NC[C@H]5CC[C@](C)(O)CC5)c([N+](=O)[O-])c4)c(Oc4cnc5[nH]ccc5c4)n3)CC2)C1` (single isomer, unassigned) [Example A-145, 2-((1H-pyrrolo[2,3-b]pyridin-5-yl)oxy)-N-((6-((((1r,4r)-4-hydroxy-4-methylcyclohexyl)methyl)amino)-5-nitropyridin-3-yl)sulfonyl)-6-(2-((R or S)-3-(2-isopropylphenyl)morpholino)-7-azaspiro[3.5]nonan-7-yl)nicotina-mide] the IC50 was 1 nM.
Work on `CO[C@H]1CC[C@H]([C@@H]2COc3cc(S(=O)(=O)NC(=O)c4ccc(N5CCC6(CC5)CC(N5CCC[C@H]5c5ccccc5C(C)C)C6)cc4Oc4cnc5[nH]cc(F)c5c4)cc([N+](=O)[O-])c3N2)CC1` (single isomer, unassigned) [Example D-45, 2-((3-fluoro-1H-pyrrolo[2,3-b]pyridin-5-yl)oxy)-4-(2-((R or S)-2-(2-isopropylphenyl)pyrrolidin-1-yl)-7-azaspiro[3.5]nonan-7-yl)-N-(((R)-3-((1r,4S)-4-methoxycyclohexyl)-5-nitro-3,4-dihydro-2H-benzo[b][1,4]oxazin-7-yl)sulfonyl)benzamide] yielded an IC50 of 1 nM.
Molecule `CC(C)c1ccccc1[C@@H]1CCCN1C1CC2(CCN(c3ccc(C(=O)NS(=O)(=O)c4cc5c(c([N+](=O)[O-])c4)N[C@@H]([C@H]4CC[C@](C)(O)CC4)CO5)c(Oc4cc5cc[nH]c5nc4OCCO)c3)CC2)C1` (single isomer, unassigned) [Example D-68, N-(((S)-3-((1r,4S)-4-hydroxy-4-methylcyclohexyl)-5-nitro-3,4-dihydro-2H-benzo[b][1,4]oxazin-7-yl)sulfonyl)-2-((6-(2-hydroxyethoxy)-1H-pyrrolo[2,3-b]pyridin-5-yl)oxy)-4-(2-((R or S)-2-(2-isopropylphenyl)pyrrolidin-1-yl)-7-azaspiro[3.5]nonan-7-yl)benzamide] has an IC50 of 1 nM.
`CC(C)c1ccccc1[C@@H]1CC[C@H](CO)N1C1CC2(CCN(c3ccc(C(=O)NS(=O)(=O)c4cc5c(c([N+](=O)[O-])c4)N[C@@H]([C@H]4CC[C@](C)(O)CC4)CO5)c(Oc4cnc5[nH]cc(F)c5c4)c3)CC2)C1` [Example D-254, 2-((3-fluoro-1H-pyrrolo[2,3-b]pyridin-5-yl)oxy)-N-(((S)-3-((1r,4S)-4-hydroxy-4-methylcyclohexyl)-5-nitro-3,4-dihydro-2H-benzo[b] [1,4]oxazin-7-yl)sulfonyl)-4-(2-((2R,5S)-2-(hydroxymethyl)-5-(2-isopropylphenyl)pyrrolidin-1-yl)-7-azaspiro[3.5]nonan-7-yl)benzamide] was tested, and the IC50 was 1 nM.
Work on `CO[C@H]1CC[C@H]([C@H]2COc3cc(S(=O)(=O)NC(=O)c4ccc(N5CCC6(CC5)CC(N5CCC[C@H]5c5ccccc5C(C)C)C6)cc4Oc4cnc5[nH]cc(F)c5c4)cc([N+](=O)[O-])c3N2)CC1` (single isomer, unassigned) [Example D-44, 2-((3-fluoro-1H-pyrrolo[2,3-b]pyridin-5-yl)oxy)-4-(2-((R or S)-2-(2-isopropylphenyl)pyrrolidin-1-yl)-7-azaspiro[3.5]nonan-7-yl)-N-(((S)-3-((1r,4S)-4-methoxycyclohexyl)-5-nitro-3,4-dihydro-2H-benzo[b][1,4]oxazin-7-yl)sulfonyl)benzamide] yielded an IC50 of 1 nM.

Same assay, conditions: Homo sapiens, Toledo, read-out: Toledo IC50 (nM)
`CC(C)c1ccccc1[C@@H]1COCCN1C1CC2(CCN(c3ccc(C(=O)NS(=O)(=O)c4ccc(NC[C@H]5CC[C@](C)(O)CC5)c([N+](=O)[O-])n4)c(Oc4cnc5[nH]ccc5c4)c3)CC2)C1` (single isomer, unassigned) [Example C-1, 2-((1H-pyrrolo[2,3-b]pyridin-5-yl)oxy)-N-((5-((((1r,4r)-4-hydroxy-4-methylcyclohexyl)methyl)amino)-6-nitropyridin-2-yl)sulfonyl)-4-(2-((R or S)-3-(2-isopropylphenyl)morpholino)-7-azaspiro[3.5]nonan-7-yl) benzamide] showed an IC50 of 1 nM.

Same assay, conditions: Toledo cells, MTS, read-out: Toledo IC50
`CC(C)c1ccccc1[C@H]1CCCN1C1CC2(CCN(c3ccc(C(=O)NS(=O)(=O)c4cc5c(c([N+](=O)[O-])c4)NC([C@H]4COCCO4)CO5)c(Oc4cnc5[nH]cc(F)c5c4)c3)CC2)C1` (single isomer, unassigned) [Example D-50b, N-(((R or S)-3-((S)-1,4-dioxan-2-yl)-5-nitro-3,4-dihydro-2H-benzo[b][1,4]oxazin-7-yl)sulfonyl)-2-((3-fluoro-1H-pyrrolo[2,3-b]pyridin-5-yl)oxy)-4-(2-((R or S)-2-(2-isopropylphenyl)pyrrolidin-1-yl)-7-azaspiro[3.5]nonan-7-yl)benzamide] showed an IC50 of 1 nM.
